Results taken from the NIST ThermoML archive (doi:10.1016/j.fluid.2014.09.014).

Test: refractive index (other wavelength) (dimensionless); xn = mol fraction of the nth substance listed
Details: 101 kPa, Liquid, Standard Abbe refractometry

CC(C)OC(C)C [diisopropyl ether] + CO
refractive index
Details | Wavelength=40.47 nm | Wavelength=435.8 nm | Wavelength=486.1 nm | Wavelength=546.1 nm | Wavelength=587.6 nm | Wavelength=589.3 nm | Wavelength=632.8 nm | Wavelength=644 nm | Wavelength=706.5 nm
308.15 K, x2 = 0 | – | 1.36739 | 1.36407 | 1.36127 | 1.36127 | 1.35983 | 1.35853 | 1.35823 | 1.35683
308.15 K, x2 = 0.0423 | – | – | 1.36395 | 1.36116 | 1.35972 | 1.35967 | 1.35842 | 1.35813 | 1.35672
308.15 K, x2 = 0.0424 | – | 1.36729 | 1.36404 | 1.36107 | 1.35977 | 1.35973 | 1.35859 | 1.35825 | 1.35677
308.15 K, x2 = 0.082 | – | 1.36727 | 1.36394 | 1.36114 | 1.35971 | 1.35966 | 1.35842 | 1.35812 | 1.35671
308.15 K, x2 = 0.0822 | 1.37037 | 1.36742 | 1.36409 | 1.3613 | 1.35986 | 1.3598 | 1.35855 | 1.35825 | 1.35685
308.15 K, x2 = 0.1171 | 1.37018 | 1.36725 | 1.36394 | 1.36113 | 1.3597 | 1.35965 | 1.35843 | 1.35814 | 1.35672
308.15 K, x2 = 0.1271 | 1.37021 | 1.36728 | 1.36394 | 1.36115 | 1.35972 | 1.35966 | 1.35843 | 1.35813 | 1.35672
308.15 K, x2 = 0.1827 | 1.36993 | 1.367 | 1.36368 | 1.3609 | 1.35947 | 1.35942 | 1.35818 | 1.35788 | 1.35648
308.15 K, x2 = 0.2162 | 1.36973 | 1.36681 | 1.36351 | 1.36071 | 1.35928 | 1.35923 | 1.35801 | 1.35771 | 1.35631
308.15 K, x2 = 0.251 | 1.36934 | 1.36642 | 1.36312 | 1.36037 | 1.35892 | 1.35889 | 1.35764 | 1.35735 | 1.35595
308.15 K, x2 = 0.3298 | 1.36925 | 1.36633 | 1.36304 | 1.36029 | 1.35886 | 1.35881 | 1.35757 | 1.35728 | 1.35588
308.15 K, x2 = 0.3577 | 1.36902 | 1.36611 | 1.36275 | 1.36006 | 1.35865 | 1.35856 | 1.35731 | 1.35703 | 1.35565
308.15 K, x2 = 0.4497 | 1.36699 | 1.36412 | 1.36085 | 1.35815 | 1.35673 | 1.35668 | 1.35545 | 1.35516 | 1.35375
308.15 K, x2 = 0.4525 | 1.36743 | 1.36455 | 1.36128 | 1.35854 | 1.35714 | 1.35709 | 1.35586 | 1.35557 | 1.35416
308.15 K, x2 = 0.522 | 1.36511 | 1.3623 | 1.35907 | 1.35635 | 1.35495 | 1.3549 | 1.3537 | 1.35341 | 1.35202
308.15 K, x2 = 0.5543 | 1.36433 | 1.36152 | 1.35831 | 1.35561 | 1.35422 | 1.35417 | 1.35297 | 1.35268 | 1.35129
308.15 K, x2 = 0.609 | 1.36183 | 1.35906 | 1.35589 | 1.35321 | 1.35182 | 1.35177 | 1.35057 | 1.35028 | 1.34894
308.15 K, x2 = 0.6529 | 1.36027 | 1.35752 | 1.35437 | 1.35171 | 1.35032 | 1.35027 | 1.34908 | 1.34881 | 1.34745
308.15 K, x2 = 0.7504 | 1.35626 | 1.35356 | 1.35046 | 1.34787 | 1.34649 | 1.34644 | 1.34527 | 1.345 | 1.34368
308.15 K, x2 = 0.804 | 1.35193 | 1.34931 | 1.34626 | 1.34371 | 1.34236 | 1.34231 | 1.34115 | 1.34088 | 1.33959
308.15 K, x2 = 0.807 | 1.3517 | 1.34907 | 1.34606 | 1.3435 | 1.34213 | 1.34208 | 1.34093 | 1.34066 | 1.33939
308.15 K, x2 = 0.8727 | 1.34787 | 1.3453 | 1.34228 | 1.33978 | 1.33843 | 1.33838 | 1.33724 | 1.33698 | 1.33572
308.15 K, x2 = 0.9233 | 1.33956 | 1.33712 | 1.33421 | 1.33175 | 1.33046 | 1.33042 | 1.32933 | 1.32908 | 1.32789
308.15 K, x2 = 0.9253 | 1.34157 | 1.33909 | 1.33616 | 1.33368 | 1.33239 | 1.33234 | 1.33125 | 1.331 | 1.32976
308.15 K, x2 = 0.9527 | 1.33839 | 1.33598 | 1.33306 | 1.33062 | 1.32932 | 1.32928 | 1.32818 | 1.32794 | 1.32672
308.15 K, x2 = 0.9773 | 1.33485 | 1.3325 | 1.3296 | 1.32717 | 1.32591 | 1.32586 | 1.32479 | 1.32455 | 1.32336
308.15 K, x2 = 0.989 | 1.33356 | 1.33124 | 1.32836 | 1.32594 | 1.32469 | 1.32465 | 1.32358 | 1.32334 | 1.32216
308.15 K, x2 = 0.9964 | 1.33249 | 1.33018 | 1.32731 | 1.32489 | 1.32366 | 1.32361 | 1.32256 | 1.32232 | 1.32114
313.15 K, x2 = 0 | 1.3674 | 1.36447 | 1.36119 | 1.35842 | 1.357 | – | – | – | –
313.15 K, x2 = 0.0423 | 1.36734 | 1.36444 | 1.36111 | 1.35837 | 1.35693 | – | – | – | –
313.15 K, x2 = 0.0424 | 1.3674 | 1.36447 | 1.36115 | 1.35839 | 1.35696 | – | – | – | –
313.15 K, x2 = 0.082 | 1.36731 | 1.3644 | 1.36108 | 1.35823 | 1.35691 | – | – | – | –
313.15 K, x2 = 0.0822 | 1.3675 | 1.36459 | 1.36126 | 1.35853 | 1.3571 | – | – | – | –
313.15 K, x2 = 0.1171 | 1.36734 | 1.36445 | 1.36113 | 1.35838 | 1.35696 | – | – | – | –
313.15 K, x2 = 0.1271 | 1.36736 | 1.36445 | 1.36113 | 1.35841 | 1.35696 | – | – | – | –
313.15 K, x2 = 0.1827 | 1.36712 | 1.36423 | 1.36091 | 1.35818 | 1.35676 | – | – | – | –
313.15 K, x2 = 0.2162 | 1.36696 | 1.36405 | 1.36077 | 1.35802 | 1.35661 | – | – | – | –
313.15 K, x2 = 0.251 | 1.36648 | 1.36361 | 1.36031 | 1.35759 | 1.35617 | – | – | – | –
313.15 K, x2 = 0.3298 | 1.36657 | 1.36371 | 1.36044 | 1.3577 | 1.35627 | – | – | – | –
313.15 K, x2 = 0.3577 | 1.36568 | 1.36268 | 1.35958 | 1.35686 | 1.35545 | – | – | – | –
313.15 K, x2 = 0.4497 | 1.36434 | 1.36152 | 1.3583 | 1.35561 | 1.35419 | – | – | – | –
313.15 K, x2 = 0.4525 | 1.36476 | 1.36193 | 1.35868 | 1.35599 | 1.35459 | – | – | – | –
313.15 K, x2 = 0.522 | 1.36255 | 1.35976 | 1.35655 | 1.35386 | 1.35246 | – | – | – | –
313.15 K, x2 = 0.5543 | 1.36165 | 1.35887 | 1.35569 | 1.353 | – | – | – | – | –
313.15 K, x2 = 0.609 | 1.35929 | 1.35654 | 1.3534 | 1.35074 | – | – | – | – | –
313.15 K, x2 = 0.6529 | 1.35769 | 1.35496 | 1.35191 | 1.34921 | – | – | – | – | –
313.15 K, x2 = 0.7504 | 1.35369 | 1.35104 | 1.34795 | 1.34538 | – | – | – | – | –
313.15 K, x2 = 0.804 | 1.34918 | 1.34656 | 1.34353 | 1.341 | – | – | – | – | –
313.15 K, x2 = 0.807 | 1.34928 | 1.34668 | 1.34363 | 1.34112 | – | – | – | – | –
313.15 K, x2 = 0.8727 | 1.3456 | 1.34306 | 1.34009 | 1.33757 | – | – | – | – | –
313.15 K, x2 = 0.9233 | 1.33747 | 1.33508 | 1.33213 | 1.3297 | – | – | – | – | –
313.15 K, x2 = 0.9253 | 1.33918 | 1.33674 | 1.3338 | 1.33136 | – | – | – | – | –
313.15 K, x2 = 0.9527 | 1.33616 | 1.33377 | 1.33085 | 1.32843 | – | – | – | – | –
313.15 K, x2 = 0.9773 | 1.33271 | 1.3304 | 1.32749 | 1.32509 | – | – | – | – | –
313.15 K, x2 = 0.989 | 1.33146 | 1.32916 | 1.32628 | 1.32387 | – | – | – | – | –
313.15 K, x2 = 0.9964 | 1.33048 | 1.3282 | 1.32531 | 1.32292 | – | – | – | – | –
